Nine compounds from patent US4962109A, “Insecticidally and acaricidally active pyrimidine esters and intermediates therefor” (Imperial Chemical Industries PLC, priority 1985, dated 1990) can be followed below.

SMILES strings stand for the structures. Read-outs that look alike come from different tables or passages of the source. Some results are limits rather than exact numbers.

Assay type in all cases: in vivo
The test system of assay [1] is Musca domestica (houseflies - adults). Briefly: Knockdown test on houseflies - adults (MD/KD), Cotton wool/sugar. The settings on record: 500 ppm, 4 hours, read-out: MD/KD grading of knockdown. The method in brief:
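Adult houseflies exposed to the compound at 500, 250 or 100 ppm in acetone/water with 0.01% wetting agent, on a cotton wool/sugar medium. Knockdown and mortality assessed, graded A (80-100%), B (50-79%) or C (<50%).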

Assay [2] deals with Diabrotica balteata (rootworm larvae). The assay is described as follows: Residual test on rootworm larvae (DB), Filter paper/maize seed, mortality. The settings on record: 48 h, 500 ppm, residual, read-out: DB grading of mortality. Put shortly: (§1)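 Product dissolved in acetone, diluted in water with 0.01% wetting agent to 500, 250 or 100 ppm; pests and/or host medium (plant or foodstuff) treated. Mortality or knockdown assessed 1–3 days later, graded A (80–100%), B (50–79%) or C (<50%).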

For assay [3], the system named is Nephotettix cincticeps (green leaf hopper - nymphs). Briefly: Contact test on green leaf hopper nymphs (NC), Rice plant, mortality. The settings on record: 500 ppm, contact, read-out: NC grading of mortality. The method in brief: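 Product dissolved in acetone, diluted in water with 0.01% wetting agent to 500, 250 or 100 ppm; nymphs and/or host rice plants treated. Mortality or knockdown assessed 1–3 days later, graded A (80-100%), B (50-79%), C (<50%).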

Assay [4] has as its system Tetranychus urticae (spider mites - ova). Briefly: Contact test on spider mites - ova (TUe), French bean leaf, mortality. The settings on record: 144 h, 500 ppm, contact, 6 days, read-out: TUe grading of mortality. The method in brief:
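Graded read-out: A 80-100%, B 50-79%, C below 50% mortality or knockdown, assessed usually 1-3 days post-treatment. Liquid preparations at 500, 250 or 100 ppm by weight, from acetone solution diluted in water with 0.01% wetting agent, applied to pests and/or their host plant or food medium.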

The test system of assay [5] is Spodoptera exigua (lesser army worm - larvae). The assay is described as follows: Residual test on lesser army worm larvae (SP), Cotton leaf, mortality. The settings on record: 48 h, 500 ppm, residual, read-out: SP grading of mortality. Put shortly:
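Product dissolved in acetone and diluted in water with 0.01% wetting agent to 500, 250 or 100 ppm; larvae and/or cotton leaf host treated. Mortality or knockdown scored one to three days later and graded A (80-100%), B (50-79%) or C (<50%).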

In assay [6] the test system is Musca domestica (houseflies - adults). The assay is described as follows: Contact test on houseflies - adults (MD), Cotton wool/sugar, mortality. The settings on record: 500 ppm, contact, read-out: MD grading of mortality. The method in brief:
as §1

The test system of assay [7] is Tetranychus urticae (spider mites - adult). The assay is described as follows: Contact test on spider mites - adult (TUa), French bean leaf, mortality. The settings on record: 72 h, 500 ppm, contact, 3 days, read-out: TUa grading of mortality. Put shortly:
as §1

Assay [8] deals with Blattella germanica (cockroach nymphs). The assay is described as follows: Residual test on cockroach nymphs (BG/R), Plastic pot, mortality. The settings on record: 72 h, 3 days, read-out: BG/R grading of mortality. As to the method: The activity of the Product was determined using a variety of insect pests. The Product was used in the form of liquid preparations containing 500, 250 or 100 parts per million (ppm) by weight of the Product. The preparations were made by dissolving the Product in acetone and diluting the solutions with water containing 0.01% by weight of a wetting agent sold under the trade name "LISSAPOL" NX until the liquid preparations contained the required concentration of the Product. "Lissapol" is a Registered Trade Mark.
The test procedure adopted with regard to each pest was basically the same and comprised supporting a number of the pests on a medium which was usually a host plant or a foodstuff on which the pests feed, and treating either or both the pests and the medium with the preparations. The mortality of the pests was then assessed at periods usually varying from one to three days after the treatment.
The results of the tests are given in Table III for each of the Products, at the rate in parts per million given in the second column as a grading of mortality designated as A, B or C wherein A indicates 80-100% mortality or knockdown, B indicates 50-79% mortality or knockdown and C indicates less than 50% mortality or knockdown.
BG/R Blattella germanica

The test system of assay [9] is Myzus persicae (aphids). The assay is described as follows: Contact test on aphids (MP), Chinese Cabbage leaf, mortality. The settings on record: 72 h, 500 ppm, contact, 3 days, read-out: MP grading of mortality. Put shortly: as §1
Assay [10] deals with Heliothis virescens (tobacco budworm - larvae). Briefly: Residual test on tobacco budworm larvae (HV), Cotton leaf, mortality. The settings on record: 48 h, read-out: HV grading of mortality. The method in brief:
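Product in acetone diluted with water containing 0.01% Lissapol NX, at 500, 250 or 100 ppm; pests and/or host medium (here cotton leaf) treated. Mortality scored one to three days later, graded A (80-100%), B (50-79%), C (<50%).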

Assay [11] relates to Blattella germanica (cockroach nymphs). Briefly: Contact test on cockroach nymphs (BG/C), Plastic pot, mortality. The settings on record: 48 h, 500 ppm, contact, 2 days, read-out: BG/C grading of mortality. Put shortly: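 Cockroach nymphs and/or their medium were treated with aqueous preparations at 500, 250 or 100 ppm (acetone solution diluted in water with 0.01% Lissapol NX wetting agent). Mortality or knockdown was assessed typically 1–3 days later and graded A (80–100%), B (50–79%) or C (<50%).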

[12] abbreviates: 72 h, * test duration of 3 days.
Setting [13] is: 24 h, ** test duration of 1 day.

In the case of `COCc1c(F)c(F)c(COC(=O)C(c2cnc(C)nc2)C(C)C)c(F)c1F` (racemic) [Compound 214, 4-(methoxymethyl)-2,3,5,6-tetrafluoroenzyl (RS)-2-(2-methylpyrimidin-5-yl)-3-methylbutanoate], the pest or weed control at 500 ppm in assay [1] is 80 to 100%. Besides, the mortality at 500 ppm in assay [2] (* test duration of 3 days) is less than 50%; in [3] (setting [12]), 80 to 100%; in assay [4], less than 50%; in [5] (* test duration of 3 days) it was 80 to 100%; in assay [6] (setting [13]), 50 to 79%; in assay [7], 80 to 100%. In addition, the mortality at 500 ppm in [8] is 80 to 100%; in assay [9], 80 to 100%; in [10] it was less than 50%.

In the case of `COCc1c(F)c(F)c(COC(=O)C(c2cnc(C(C)(C)C)nc2)C(C)(C)C)c(F)c1F` (racemic) [Compound 15, 2,3,5,6-tetrafluoro-4-(methoxymethyl)benzyl (RS)-2-[2-(1,1-dimethylethyl)pyrimidin-5-yl]-3,3-dimethylbutanoate], the pest or weed control at 500 ppm in assay [1] was in the range of 80 to 100%. For the same compound, the mortality at 500 ppm in [2] (* test duration of 3 days), in assay [3] (setting [12]), in [4], in [5] (* test duration of 3 days), in assay [6] (setting [13]) and in assay [7] was 80 to 100% each time. Also, the figures for the mortality at 500 ppm in assay [8], in [9] and in assay [10] were 50 to 79%, 80 to 100% and 80 to 100%, respectively.

As for `C#CCc1c(F)c(F)c(COC(=O)C(c2cnc(C(F)(F)F)nc2)C(C)C)c(F)c1F` (racemic) [Compound 87, 2,3,5,6-tetrafluoro-4-(prop-2-yn-1-yl)benzyl (RS)-2-(2-trifluoromethylpyrimidin-5-yl)-3-methylbutanoate], the pest or weed control at 500 ppm in [1] was in the range of 80 to 100%. Further, the mortality at 500 ppm lay within 80 to 100% in [2] (* test duration of 3 days); 50 to 79% in assay [3] (setting [12]); 80 to 100% in [4]; 80 to 100% in [5] (* test duration of 3 days); 80 to 100% in assay [6] (setting [13]); 80 to 100% in assay [7]. Besides, the mortality at 500 ppm lay within 80 to 100% in assay [8], 80 to 100% in [9] and 50 to 79% in [10].

In the case of `C[C@@H](OC(=O)[C@@H](c1cnc(C(C)(C)C)nc1)C1CC1)c1cccc(Oc2ccccc2)n1` (racemic) [Compound 90, (RS)-1-(6-phenoxypyrid-2-yl)ethyl (RS)-2-[2-(1,1-dimethylethyl)pyrimidin-5-yl]-2-cyclopropylacetate], the pest or weed control at 500 ppm in [1] was in the range of 80 to 100%. In addition, the mortality at 500 ppm in assay [2] (* test duration of 3 days) is 80 to 100%; in [3] (setting [12]) it was 80 to 100%; in assay [4], less than 50%; in [5] (* test duration of 3 days), 80 to 100%; in [6] (setting [13]) it was 80 to 100%; in assay [7] it was 80 to 100%. In addition, the mortality at 500 ppm in [8], in [9] and in assay [10] was 80 to 100% each time.

Take `COCc1c(F)c(F)c(COC(=O)C(c2cnc(C(C)(C)C)nc2)C(C)(C)C)c(OC)c1F` (racemic) [Compound 16, 2,3,5-trifluoro-6-methoxy-4-(methoxymethyl)benzyl (RS)-2-[2-(1,1-dimethylethyl)pyrimidin-5-yl]-3,3-dimethylbutanoate]: the pest or weed control at 500 ppm in assay [1] lay within 80 to 100%. The mortality at 500 ppm was less than 50% in [2] (* test duration of 3 days); 80 to 100% in [4]; 80 to 100% in assay [5] (* test duration of 3 days); 80 to 100% in [6] (setting [13]); less than 50% in [7]; 50 to 79% in [8]. In addition, the mortality at 500 ppm in assay [9] and in [10] was 80 to 100% each time.

As to `C#CCc1c(F)c(F)c(COC(=O)C(c2cnc(C(C)(C)C)nc2)C(C)(C)C)c(F)c1F` (racemic) [Compound 12, 2,3,5,6-tetrafluoro-4-(prop-2-yn-1-yl)benzyl (RS)-2-[2-(1,1-dimethylethyl)pyrimidin-5-yl]-3,3-dimethylbutanoate], the pest or weed control at 500 ppm in assay [1] lay within 80 to 100%. Also, the mortality at 500 ppm in assay [2] (* test duration of 3 days), in assay [3] (setting [12]), in assay [4], in assay [5] (* test duration of 3 days), in [6] (setting [13]) and in [7] was 80 to 100% each time. The mortality at 500 ppm in assay [8], in [9] and in [10] was 80 to 100% in each case.

For `C=CCc1c(F)c(F)c(COC(=O)C(c2cnc(C(F)(F)F)nc2)C(C)C)c(F)c1F` (racemic) [Compound 114, 2,3,5,6-tetrafluoro-4-(prop-2-en-1-yl)benzyl (RS)-2-(2-trifluoromethylpyrimidin-5-yl)-3-methylbutanoate], in assay [1], the pest or weed control at 500 ppm lay in the range of 80 to 100%. The mortality at 500 ppm in assay [2] (* test duration of 3 days) lay within 80 to 100%; in assay [3] (setting [12]), 80 to 100%; in [4], 80 to 100%; in assay [5] (* test duration of 3 days), 80 to 100%; in assay [6] (72 h, 3 days) it was 80 to 100%; in [7], 80 to 100%. Moreover, the mortality at 500 ppm in [8], in [9] and in assay [10] was 80 to 100% in each case.

Turning to `Cc1c(F)c(F)c(COC(=O)C(c2cnc(C(C)(C)C)nc2)C(C)(C)C)c(F)c1F` (racemic) [Compound 4, 2,3,5,6-tetrafluoro-4-methylbenzyl (RS)-2-[2-(1,1-dimethylethyl)pyrimidin-5-yl]-3,3-dimethylbutanoate], the pest or weed control at 500 ppm in [1] is 80 to 100%. Moreover, the mortality at 500 ppm in [2] (* test duration of 3 days) is 80 to 100%; in assay [3] (setting [12]) it was 80 to 100%; in assay [4], less than 50%; in assay [5] (* test duration of 3 days), 80 to 100%; in assay [6] (setting [13]) it was 80 to 100%; in assay [7], 80 to 100%. Also, the mortality at 500 ppm in assay [8] lay within 50 to 79%; in assay [9], 80 to 100%; in [10], 80 to 100%.

Regarding `COCc1c(F)c(F)c(COC(=O)C(c2cnc(-c3ccccc3)nc2)C(C)(C)C)c(F)c1F` (racemic) [Compound 161, 2,3,5,6-tetrafluoro-4-(methoxymethyl)benzyl (RS)-2-(2-phenylpyrimidin-5-yl)-3,3-dimethylbutanoate], the pest or weed control at 500 ppm in [1] was in the range of 80 to 100%. The mortality at 500 ppm lay within 50 to 79% in assay [2] (2 days); 80 to 100% in [3] (48 h, 2 days); 50 to 79% in [11]; 80 to 100% in [4]; 80 to 100% in assay [5] (2 days); 80 to 100% in assay [6] (72 h, 3 days). In addition, the mortality at 500 ppm in [7] is 80 to 100%; in [9], 80 to 100%; in assay [10], less than 50%.
